Test results: patent US12570704B2, “Functionally modified maytansinoids and compositions and methods of use thereof” (University of Georgia Research Foundation, Inc., priority 2019, dated 2026)

Experiments:
[1] = Time-dependent NO release in PBS of different pH (Sievers NOA 280i chemiluminescence); format: physicochemical
Text: FIGS. 1A and 1B are schemes illustrating how DM1-NO encapsulated PLGA-b-PEG nanoparticles (DM1-NO-NPs) can accumulate in tumors through the EPR effect. In the presence of radiation and/or reduced pH in endosomes/lysosomes, the S—N bond was broken, releasing DM1 and NO. DM1 inhibits microtubule assembly, arresting cells at the more radiosensitive G2/M phase. Meanwhile, NO can react with ROS to form radicals such as peroxynitrites, causing DNA and lipid damages. The combined effects enhance the efficacy of RT. […] Quantification was based on Greiss assay. PBS, cell culture medium (RPBI-1640), DM1, and DM1-NPs were tested as controls. FIG. 1D is a histogram showing the results of DLS analysis of DM1-NO-NPs in water. FIG. 1E is a plot showing the zeta potential of DM1-NO-NPs in water. FIG. 1F is a bar graph illustrating the stability of DM1-NO under ambient conditions. After synthesis, dry product of DM1-NO was kept at room temperature and the total amount of remaining NO was quantified using Griess assay on Day 0, 7, 14, and 21. FIG. 1G is plot illustrating the stability of DM1-NO in solutions. DM1-NO (20.09 μmol) was dissolved in PBS of different pH (5.5, 6.5, and 7.4). Time-dependent NO release was measured on a Sievers NOA 280i system, which assesses NO based on gas phase chemiluminescent reaction between NO and ozone. FIG. 1H is a line graph showing release profiles for DM1-NO-NPs, tested in PBS of different pH at 37° C. by Greiss assays. FIG. 1I is a histogram showing the results of DLS analysis of DM1-NPs. FIG. 1J is a plot showing the zeta potential of DM1-NPs. FIG. 1K is a series of representative images of clonogenic assays. H1299 cells were treated with 20 nM of DM1 and DM1-NO for 12 h, followed −X-ray irradiation (6 Gy). The resulting cells were plated for clonogenic assays. FIG. 1L is a plot showing UV-vis analysis of DM1-NO, PLGA-b-PEG and DM1-NO-NPs. FIG. 1M is a plot showing FT-IR analysis of DM1-NO, PLGA-b-PEG and DM1-NO-NPs. FIG. 1N is a plot showing the results of DLS analysis (hydrodynamic size) over time for DM1-NO-NPs that were incubated in PBS for 24 h.
DM1-NO was stable under ambient conditions in the powder form. According to Griess assay, less than 10% of the compound was degraded over 2 weeks' storage at room temperature (FIG. 1F). […] (FIG. 1G), and the degradation was accelerated at low pH (e.g. pH 6.5 or 5.5, FIG. 1G, Table 1), and under X-ray irradiation (FIG. 1C).

[2] = system: H1299 tumor bearing nude mice; assay: In vivo therapy study with X-ray irradiation; conditions: 260.8 nmol/kg i.v. + 6 Gy after 4 h; RT only 1826.4
Procedure: All animal experiments were performed according to protocols approved by the Institutional Animal Care and Use Committee (IACUC). Female athymic nude mice (Charles River Laboratories, USA) at 6 weeks old were housed in a protected unit specified for immunodeficient animals. To establish tumor models, H1299 cells (2×10^5 cells) were suspend in a matrigel solution and were subcutaneously injected into mice using a 28-gauge needle. All mice were randomized into six groups (n=5). When the average tumor volume reached 150 mm3, 200 μL free drug (DM1, DM1-NO) or drug loaded NPs (DM1-NPs, DM1-NO-NPs) in PBS at a dose of 260.8 nmol/kg were injected intravenously into the mice. Mice treated with 200 μL PBS were studied as a control. All the other mice received X-ray irradiation (6 Gy, 320 kV) to tumors 4 h after drug/nanoparticle injection, with the rest of the body shielded by lead. Tumor size and body weight were inspected every 3 days using a digital caliper, and the tumor volume was estimated as (length)×(width)2/2. After 24 days, the mice were euthanized, and the tumor was excised and dissected into slices for hematoxylin and eosin (H&E) staining.
In vivo therapy studies were performed with H1299 tumor bearing nude mice. When tumor size reached 150 mm3, DM1-NO-NPs (260.8 nmol/kg, equivalent to 0.2 mg DM1/kg) was intravenously (i.v.) injected into the animals (n=5). […]

COc1cc2cc(c1Cl)N(C)C(=O)C[C@@H](OC(=O)[C@H](C)N(C)C(=O)CCSN=O)[C@]1(C)OC1[C@H](C)[C@@H]1C[C@@](O)(NC(=O)O1)[C@H](OC)/C=C\C=C(/C)C2 (some centres unmarked) [DM1-NO]
degradation in solution ([1]; PBS at 37° C., accelerated at low pH and under X-ray): gradually broke down | Average NO Release (per μL of sample) ([1]; PBS pH 5.5): 1.29E−07 μmol NO/min | Average NO Release (per μL of sample) ([1]; PBS pH 6.5): 7.81E−08 μmol NO/min | Average NO Release (per μL of sample) ([1]; PBS pH 7.4): 7.83E−08 μmol NO/min | average tumor size (volume) on Day 24 [2]: 759.33 mm3
